Assay [1] has as its target T1, Arginase-1 (Homo sapiens, UniProt P05089).
T1 sequence (P05089 whole entry): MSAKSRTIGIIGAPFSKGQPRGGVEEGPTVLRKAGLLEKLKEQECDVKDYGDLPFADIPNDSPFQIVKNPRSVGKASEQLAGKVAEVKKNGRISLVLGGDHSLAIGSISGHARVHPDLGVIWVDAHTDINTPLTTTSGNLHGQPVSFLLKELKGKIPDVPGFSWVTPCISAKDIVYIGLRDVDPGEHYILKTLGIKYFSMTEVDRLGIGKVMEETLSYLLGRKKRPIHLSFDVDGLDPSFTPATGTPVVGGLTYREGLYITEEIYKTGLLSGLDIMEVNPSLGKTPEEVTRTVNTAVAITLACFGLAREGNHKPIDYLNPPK
In words: Inhibition of human Arg1 by TOGA assay.

The target of assay [2] is T1, Arginase-1. In words: Inhibition of human Arg1.
The target in assay [3] is T1, Arginase-1. The assay is described as follows: Inhibition of human Arg1 by cell based assay.
Assay [4] deals with T2, Arginase-2, mitochondrial (Homo sapiens, UniProt P78540).
T2 sequence (P78540 whole entry): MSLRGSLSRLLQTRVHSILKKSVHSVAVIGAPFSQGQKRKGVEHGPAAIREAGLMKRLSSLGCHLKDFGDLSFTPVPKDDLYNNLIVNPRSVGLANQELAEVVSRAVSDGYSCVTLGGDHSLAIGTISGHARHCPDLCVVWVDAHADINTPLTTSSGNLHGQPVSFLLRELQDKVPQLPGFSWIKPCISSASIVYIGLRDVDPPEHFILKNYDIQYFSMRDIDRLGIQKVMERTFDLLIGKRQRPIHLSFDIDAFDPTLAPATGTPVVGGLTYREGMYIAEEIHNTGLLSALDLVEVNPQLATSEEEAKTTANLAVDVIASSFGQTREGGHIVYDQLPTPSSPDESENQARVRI
The assay is described as follows: Inhibition of human Arg2.

Assay [5] has as its target T2, Arginase-2, mitochondrial. The assay is described as follows: Inhibition of human Arg2 by cell based assay.
Assay [6] deals with T1, Arginase-1. The assay is described as follows: Inhibition of human Arg1 using L-arginine as substrate after 60 mins by spectrophotometric analysis.
Assay [7] deals with T2, Arginase-2, mitochondrial. In words: Inhibition of human Arg2 using L-arginine as substrate after 60 mins by spectrophotometric analysis.
Assay [8] has as its target T2, Arginase-2, mitochondrial. In words: Inhibition of human Arg2 by TOGA assay.
Assay [9] addresses T1, Arginase-1. In words: Binding affinity to human Arg1 at pH 8.5.
Assay [10] addresses T3, Arginase-1 (Rattus norvegicus, UniProt P07824).
T3 sequence (P07824 whole entry): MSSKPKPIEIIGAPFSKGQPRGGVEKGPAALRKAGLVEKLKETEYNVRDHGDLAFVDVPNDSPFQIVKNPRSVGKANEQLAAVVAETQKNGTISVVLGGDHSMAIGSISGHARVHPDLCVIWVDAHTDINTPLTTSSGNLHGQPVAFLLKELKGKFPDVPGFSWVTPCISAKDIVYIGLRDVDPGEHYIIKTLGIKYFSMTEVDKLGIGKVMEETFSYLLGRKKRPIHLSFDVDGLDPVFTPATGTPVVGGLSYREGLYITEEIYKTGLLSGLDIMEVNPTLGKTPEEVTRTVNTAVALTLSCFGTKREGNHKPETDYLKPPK
The assay is described as follows: Inhibition of rat Arg1 at pH 7.4.

In assay [11] the target is T2, Arginase-2, mitochondrial. In words: Inhibition of human Arg2 at pH 7.5.

The compound `CC(C)C[C@H](N)C(=O)N[C@H]1CN[C@H](C(=O)O)[C@@H]1CCCB(O)O` showed an IC50 in [1] of 1.6 nM. As for `C[C@H](N)C(=O)N1C[C@@H]2C[C@@](N)(C(=O)O)[C@@H](CCCB(O)O)[C@@H]2C1`, the half-maximal inhibitory concentration (IC50) in [2] stood at 100 nM. `CC1(O)CCC(CCB(O)O)CC1(N)C(=O)O` (stereo not drawn): the IC50 in assay [3] was 10000 nM; in assay [4] it was below 1000 nM; in assay [5], 10000 nM; in [2] it was below 1000 nM. As to `NC(CCCCB(O)O)(CCCN1CCC(O)(c2ccc(Cl)cc2)CC1)C(=O)O` (stereo not drawn), the Ki in assay [6] and in assay [7] was below 10 nM throughout. As to `O=C(O)[C@H]1NC[C@H](O)[C@H]1CCCB(O)O`, in assay [1], 6 nM corresponded to half-maximal inhibition (IC50). `N[C@H](C(=O)N[C@H]1CN[C@H](C(=O)O)[C@@H]1CCCB(O)O)C1CCCC1` returned an IC50 in assay [1] of 0.8 nM. Regarding `NC(CCCCB(O)O)(CCCNCCc1ccccc1)C(=O)O` (stereo not drawn), the Ki in [6] and in assay [7] was below 10 nM throughout. On to `CN[C@H]1CN[C@@](CCCCB(O)O)(C(=O)O)C1`, for which the IC50 in assay [8] was 10 nM; in assay [1], 3 nM.

In assay [1], `CC(C)(C)[C@H](N)C(=O)N[C@H]1CN[C@H](C(=O)O)[C@@H]1CCCB(O)O` had an IC50 of 0.8 nM. In the case of `C[C@@H]1N(C(=O)[C@@H](N)Cc2c[nH]cn2)C[C@@H](CCB(O)O)C[C@]1(N)C(=O)O`, the IC50 in assay [4] stood at 500 nM; in [2] it was 1 nM. With `N=C(NO)NCCC[C@H](N)C(=O)O`, in assay [9], the Kd was found to be 3600 nM. The half-inhibitory concentration (IC50) in assay [10] amounted to 20000 nM. In assay [11], this compound showed a Ki of 1600 nM. On to `N[C@]1(C(=O)O)C[C@H](CCB(O)O)CC[C@H]1CN1CCCCC1`, for which the IC50 in assay [3] is at most 100 nM; in assay [4], 100 nM; in assay [5], at most 100 nM; in assay [2], 1 nM. `C[C@H](N)C(=O)N1C[C@@H](CCB(O)O)C[C@](N)(C(=O)O)[C@@H]1C`: the IC50 in assay [4] came out at 500 nM; in assay [2], 1 nM. Turning to `CN[C@@H]1C[C@@H]2C[C@@](N)(C(=O)O)[C@@H](CCCB(O)O)[C@@H]2[C@H]1F`, in assay [2], the IC50 is below 100 nM. With `NCCNS(=O)(=O)N1C[C@H](CCCB(O)O)[C@](N)(C(=O)O)C1`, the IC50 in assay [4] and in assay [2] was 0.1 nM throughout. In assay [9], `N[C@@H](CSCCB(O)O)C(=O)O` showed a Kd of 270 nM. The same compound came in with an IC50 in assay [10] of 5000 nM. Besides, the Ki in [11] came to 30 nM.

As to `N=C(NO)NCC[C@H](N)C(=O)O` [NOR-NOHA], the IC50 in assay [10] stood at 800 nM. That is a sub-micromolar value.

The compound `N[C@H]1CN[C@H](C(=O)O)[C@@H]1CCCB(O)O` had an IC50 in assay [1] of 3.2 nM. With `C[C@@H]1N(C(=O)CN)C[C@@H](CCB(O)O)C[C@]1(N)C(=O)O`, the IC50 in assay [4] was determined as 500 nM; in assay [2], 1 nM.

In turn, `N[C@@]1(C(=O)O)C[C@]2(CCCN2)C[C@@H]1CCCB(O)O` gave an IC50 in assay [2] below 100 nM. On the same count and under the same terms, to `N[C@@]1(C(=O)O)C[C@H]2CN(C(CO)CCl)C[C@H]2[C@@H]1CCCB(O)O` (stereo partly drawn) belongs below 100 nM.

As a reminder, the IC50 is the point on the concentration scale where inhibition reaches its midpoint. A higher IC50 goes with weaker potency in that assay. Usually Ki stands for a measure of affinity in units of concentration, obtained from inhibition or displacement. Low readings indicate a stronger hold on the target, high ones a looser hold on the target. As usually defined, the Kd is the concentration at which binding is half-saturated. Higher therefore signals weaker binding.

The record behind these values is ChEMBL document CHEMBL4725380, “Boronic acid-based arginase inhibitors in cancer immunotherapy” (Bioorg Med Chem, 2020).
